{
  "source": "the NIST ThermoML archive (doi:10.1021/je400894j)",
  "experiment": "mn = molality of the nth substance listed, in mol/kg",
  "conditions": "101 kPa, Liquid, Falling or rolling sphere viscometry",
  "note": "± gives the expanded uncertainty stated by the source.",
  "data": [
    {"smiles": "O=C([O-])CC(O)(CC(=O)[O-])C(=O)[O-].[Na+].[Na+].[Na+]", "note": "[trisodium citrate] + O", "values": [
      {"measurement": "viscosity", "setting": "288.15 K, m1 = 0.2", "result": "1.343 ± 0.032", "unit": "mPa·s"},
      {"measurement": "viscosity", "setting": "288.15 K, m1 = 0.4", "result": "1.661 ± 0.033", "unit": "mPa·s"},
      {"measurement": "viscosity", "setting": "288.15 K, m1 = 0.6", "result": "2.072 ± 0.034", "unit": "mPa·s"},
      {"measurement": "viscosity", "setting": "288.15 K, m1 = 0.8", "result": "2.633 ± 0.037", "unit": "mPa·s"},
      {"measurement": "viscosity", "setting": "298.15 K, m1 = 0.2", "result": "1.056 ± 0.031", "unit": "mPa·s"},
      {"measurement": "viscosity", "setting": "298.15 K, m1 = 0.4", "result": "1.296 ± 0.032", "unit": "mPa·s"},
      {"measurement": "viscosity", "setting": "298.15 K, m1 = 0.6", "result": "1.592 ± 0.033", "unit": "mPa·s"},
      {"measurement": "viscosity", "setting": "298.15 K, m1 = 0.8", "result": "2.002 ± 0.034", "unit": "mPa·s"},
      {"measurement": "viscosity", "setting": "308.15 K, m1 = 0.2", "result": "0.858 ± 0.031", "unit": "mPa·s"},
      {"measurement": "viscosity", "setting": "308.15 K, m1 = 0.4", "result": "1.047 ± 0.031", "unit": "mPa·s"},
      {"measurement": "viscosity", "setting": "308.15 K, m1 = 0.6", "result": "1.277 ± 0.032", "unit": "mPa·s"},
      {"measurement": "viscosity", "setting": "308.15 K, m1 = 0.8", "result": "1.581 ± 0.033", "unit": "mPa·s"},
      {"measurement": "viscosity", "setting": "318.15 K, m1 = 0.2", "result": "0.719 ± 0.031", "unit": "mPa·s"},
      {"measurement": "viscosity", "setting": "318.15 K, m1 = 0.4", "result": "0.868 ± 0.031", "unit": "mPa·s"},
      {"measurement": "viscosity", "setting": "318.15 K, m1 = 0.6", "result": "1.049 ± 0.031", "unit": "mPa·s"},
      {"measurement": "viscosity", "setting": "318.15 K, m1 = 0.8", "result": "1.287 ± 0.032", "unit": "mPa·s"}
    ]}
  ]
}
